Assay results as given in patent US20050158320A1, “Combinations for the treatment of proliferative diseases” (priority 2003, published 2005).
Like-named read-outs stand apart in the source and are kept apart here.

How the values were obtained:
[1] = test system: Human colon adenocarcinoma cell line HCT116; assay: anti-proliferation assay (Alamar Blue); type: cell-based; details: read-out: percent inhibition (% I) of cell proliferation
Description: Cells were diluted in culture media such that 3000 cells were delivered in 20 μL of media into each assay well. […] Quantification, using an LJL Analyst AD reader (LJL Biosystems), was taken in the middle of the well with high attenuation, a 100 msec read time, an excitation filter at 530 nm, and an emission filter at 575 nm. For some experiments, quantification was performed using a Wallac Victor2 reader. Measurements were taken at the top of the well with stabilized energy lamp control; a 100 msec read time, an excitation filter at […], and an emission filter at 590 nm. No significant differences between plate readers were measured. The percent inhibition (% I) for each well was calculated using the following formula: % I=[(avg. untreated wells−treated well)/(avg. untreated wells)]×100 […] Negative inhibition values result from local variations in treated wells as compared to untreated wells.

PRL phosphatases = details: Pathak et al., Mol. Cancer Ther. 2002; cited from earlier work
[2] = molecular target: T1, Recombinant HsEg5/KSP kinesin motor protein (Homo sapiens, UniProt P52732); assay: cell free motor assay (Kinesin ATPase End Point Biochem Kit, microtubule activated ATPase activity); type: biochemical
T1 sequence (P52732 1-1056): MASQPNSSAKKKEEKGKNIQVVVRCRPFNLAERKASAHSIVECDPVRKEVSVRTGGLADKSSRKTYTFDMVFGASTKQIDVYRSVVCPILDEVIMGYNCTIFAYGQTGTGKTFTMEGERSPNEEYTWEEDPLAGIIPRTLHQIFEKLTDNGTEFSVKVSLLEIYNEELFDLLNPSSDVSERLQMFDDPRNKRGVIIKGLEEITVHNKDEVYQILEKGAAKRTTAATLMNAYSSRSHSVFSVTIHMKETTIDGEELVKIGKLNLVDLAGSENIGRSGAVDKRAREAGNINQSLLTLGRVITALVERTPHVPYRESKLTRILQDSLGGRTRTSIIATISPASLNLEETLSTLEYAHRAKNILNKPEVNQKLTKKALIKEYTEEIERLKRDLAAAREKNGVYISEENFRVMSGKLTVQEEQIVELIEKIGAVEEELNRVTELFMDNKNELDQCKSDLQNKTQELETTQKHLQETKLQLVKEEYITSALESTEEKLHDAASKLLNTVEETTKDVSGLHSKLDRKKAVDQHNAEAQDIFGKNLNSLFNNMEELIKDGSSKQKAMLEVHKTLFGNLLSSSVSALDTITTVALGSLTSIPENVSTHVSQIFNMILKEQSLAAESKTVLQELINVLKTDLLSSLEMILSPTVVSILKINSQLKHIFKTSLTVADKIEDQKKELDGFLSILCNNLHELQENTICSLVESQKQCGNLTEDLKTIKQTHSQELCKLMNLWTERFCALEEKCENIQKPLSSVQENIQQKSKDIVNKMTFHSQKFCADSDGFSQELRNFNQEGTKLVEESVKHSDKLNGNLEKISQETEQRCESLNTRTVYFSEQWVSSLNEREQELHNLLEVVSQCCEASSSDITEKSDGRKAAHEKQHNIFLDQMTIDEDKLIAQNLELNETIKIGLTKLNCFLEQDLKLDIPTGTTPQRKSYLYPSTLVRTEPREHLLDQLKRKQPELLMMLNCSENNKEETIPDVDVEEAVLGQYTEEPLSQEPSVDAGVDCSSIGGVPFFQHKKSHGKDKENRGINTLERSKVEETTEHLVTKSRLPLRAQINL
Description: This assay measures organic phosphate (Pi) generated during microtubule activated ATPase activity of kinesin motor proteins. Recombinant HsEg5/KSP kinesin motor protein activity was assayed using the Kinesin ATPase End Point Biochem Kit (Cytoskeleton, catalog # BK053) following the manufacturer's instructions for amounts of reaction buffer, ATP and microtubules. The amount of HsEg5/KSP kinesin protein was optimized to 0.8 μg per reaction and included where indicated. Each assay was performed in a total reaction volume of 30 μL in a clear 96 well ½ area plate (Coming Inc., Costar and cat # 3697) and included the following conditions: • 1. a reaction blank consisting of reaction buffer and ATP only; • 2. negative control reactions containing: • a. microtubules and ATP without kinesin protein or • b. kinesin HsEg5/KSP and ATP without microtubules; and • 3. experimental reactions containing ATP, kinesin, and microtubules with or without compound at the indicated final concentrations.
Reactions were pre-incubated for 15 minutes at room temperature prior to the addition of ATP. After ATP addition, reactions were allowed to proceed for 10 minutes at room temperature prior to termination by the addition of 70 μL of CytoPhos Reagent. Following a last 10-minute incubation at room temperature, reactions were quantitated by reading the absorbance at 650 nm on a spectrophotometer (Beckman Instruments, Inc., Model DU 530). Raw absorbance values were corrected by subtracting the absorbance of the blank. Absorbance was converted into Pi concentration by comparison with a standard Pi curve. Percent inhibition was calculated from Pi concentration according to the following formula: % Inhibition=(untreated-treated)/untreated×100. The arithmetic mean was generated from percent inhibition of experimental replicates.

## N=C(N)c1ccc(OCCCCCOc2ccc(C(=N)N)cc2)cc1 [Pentamidine, pentamidine]
[1]; HCT-116, chlorpromazine 0 μM, pentamidine 0.5 μM
  inhibition at 0.5 µM: 1.2%
[1]; HCT-116, chlorpromazine 0 μM, pentamidine 1 μM
  inhibition at 1 µM: 1.9%
[1]; HCT-116, chlorpromazine 0 μM, pentamidine 2 μM
  inhibition at 2 µM: 3.1%
[1]; HCT-116, chlorpromazine 0 μM, pentamidine 4 μM
  inhibition at 4 µM: -0.77%
[1]; HCT-116, chlorpromazine 0 μM, pentamidine 6 μM
  inhibition at 6 µM: 5%
[1]; HCT-116, chlorpromazine 0 μM, pentamidine 9 μM
  inhibition at 9 µM: 9%
[1]; HCT-116, chlorpromazine 0 μM, pentamidine 12 μM
  inhibition at 12 µM: 9.9%
[1]; HCT-116, chlorpromazine 0 μM, pentamidine 15 μM
  inhibition at 15 µM: 16%
[1]; HCT-116, chlorpromazine 0 μM, pentamidine 20 μM
  inhibition at 20 µM: 19%
PRL phosphatases
  PRL phosphatase inhibition (in words): inhibitor of the PRL phosphatases

## CN(C)CCCN1c2ccccc2Sc2ccc(Cl)cc21 [Chlorpromazine, chlorpromazine]
[1]; HCT-116, chlorpromazine 4 μM, pentamidine 0 μM
  inhibition at 4 µM: 2.9%
[1]; HCT-116, chlorpromazine 6 μM, pentamidine 0 μM
  inhibition at 6 µM: 0.11%
[1]; HCT-116, chlorpromazine 7.5 μM, pentamidine 0 μM
  inhibition at 7.5 µM: 5.4%
[1]; HCT-116, chlorpromazine 9 μM, pentamidine 0 μM
  inhibition at 9 µM: 4.1%
[1]; HCT-116, chlorpromazine 10 μM, pentamidine 0 μM
  inhibition at 10 µM: 16%
[1]; HCT-116, chlorpromazine 12 μM, pentamidine 0 μM
  inhibition at 12 µM: 22%
[1]; HCT-116, chlorpromazine 16 μM, pentamidine 0 μM
  inhibition at 16 µM: 39%
[1]; HCT-116, chlorpromazine 20 μM, pentamidine 0 μM
  inhibition at 20 µM: 56%
[1]; HCT-116, chlorpromazine 22 μM, pentamidine 0 μM
  inhibition at 22 µM: 59%
[2]; cell free motor assay
  mitotic kinesin inhibition (in words): mitotic kinesin inhibitor
[2]; chlorpromazine 1 μM, mean, n = 4, read-out: Percent inhibition of kinesin motor activity
  inhibition at 1 µM: -5.51%
[2]; chlorpromazine 2 μM, mean, n = 4, read-out: Percent inhibition of kinesin motor activity
  inhibition at 2 µM: -11.2%
[2]; chlorpromazine 4 μM, mean, n = 4, read-out: Percent inhibition of kinesin motor activity
  inhibition at 4 µM: 17.4%
[2]; chlorpromazine 8 μM, mean, n = 4, read-out: Percent inhibition of kinesin motor activity
  inhibition at 8 µM: 52.9%
[2]; chlorpromazine 16 μM, mean, n = 4, read-out: Percent inhibition of kinesin motor activity
  inhibition at 16 µM: 85.8%
[2]; chlorpromazine 32 μM, mean, n = 4, read-out: Percent inhibition of kinesin motor activity
  inhibition at 32 µM: 97.8%
[2]; chlorpromazine 64 μM, mean, n = 4, read-out: Percent inhibition of kinesin motor activity
  inhibition at 64 µM: 105%
